What was measured:
Assay in all cases: relative viability (nuclei count vs DMSO), 5 days (fraction); higher = more cells survive
BEN = tested on: BEN
Summary of the method: (§1)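 Each reported value is a median over duplicate plates. It expresses relative viability: treated-well nuclei count divided by vehicle-well nuclei count. Lung cancer cell lines in 1536-well plates were dosed by pin tool a day after seeding, alone with one drug or with a fixed anchor-drug dose plus five library-drug doses (not always all listed) in √10 steps, and nuclei were counted after 5 days.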

ChaGo-K-1 = tested on: ChaGo-K-1
Summary of the method: as §1

HCC-78 = tested on: HCC-78
Summary of the method: as §1

LC-2-ad = tested on: LC-2-ad
Summary of the method: as §1

LCLC-97TM1 = tested on: LCLC-97TM1
Summary of the method: as §1

LK-2 = tested on: LK-2
Summary of the method: as §1

LU99A = tested on: LU99A
Summary of the method: as §1

LXF-289 = tested on: LXF-289
Summary of the method: as §1

NCI-H1355 = tested on: NCI-H1355
Summary of the method: as §1

NCI-H1651 = tested on: NCI-H1651
Summary of the method: as §1

NCI-H1666 = tested on: NCI-H1666
Summary of the method: as §1

NCI-H1944 = tested on: NCI-H1944
Summary of the method: as §1

NCI-H1975 = tested on: NCI-H1975
Summary of the method: as §1

NCI-H2087 = tested on: NCI-H2087
Summary of the method: as §1

NCI-H2342 = tested on: NCI-H2342
Summary of the method: as §1

NCI-H358 = tested on: NCI-H358
Summary of the method: as §1

NCI-H596 = tested on: NCI-H596
Summary of the method: as §1

NCI-H650 = tested on: NCI-H650
Summary of the method: as §1

NCI-H661 = tested on: NCI-H661
Summary of the method: as §1

NCI-H838 = tested on: NCI-H838
Summary of the method: as §1

PC-3 [JPC-3] = tested on: PC-3 [JPC-3]
Summary of the method: as §1

SK-MES-1 = tested on: SK-MES-1
Summary of the method: as §1

`Nc1ccn([C@@H]2O[C@H](CO)[C@@H](O)[C@@H]2O)c(=O)n1` [Cytarabine] + Nc1nc2[nH]cc(CCc3ccc(C(=O)N[C@@H](CCC(=O)O)C(=O)O)cc3)c2c(=O)[nH]1 [Pemetrexed] (partner 0.2 µM) gave a relative viability (BEN; first compound 0.005 µM) of 0.632, a relative viability (BEN; first compound 0.01581 µM) of 0.512 and a relative viability (BEN; first compound 0.05 µM) of 0.383. The relative viability (BEN; first compound 0.1581 µM) was 0.366, the relative viability (BEN; first compound 0.5 µM) was 0.287 and the relative viability (ChaGo-K-1; first compound 0.005 µM) was 0.264. It also gave a relative viability (ChaGo-K-1; first compound 0.01581 µM) of 0.249, a relative viability (ChaGo-K-1; first compound 0.05 µM) of 0.239 and a relative viability (ChaGo-K-1; first compound 0.1581 µM) of 0.209. For the same molecule, the relative viability (ChaGo-K-1; first compound 0.5 µM) was 0.192, the relative viability (HCC-78; first compound 0.005 µM) was 0.824 and the relative viability (HCC-78; first compound 0.01581 µM) was 0.918. The relative viability (HCC-78; first compound 0.05 µM) was 0.889, the relative viability (HCC-78; first compound 0.1581 µM) was 0.936 and the relative viability (HCC-78; first compound 0.5 µM) was 0.894. The relative viability (LC-2-ad; first compound 0.005 µM) was 0.28, the relative viability (LC-2-ad; first compound 0.01581 µM) was 0.31 and the relative viability (LC-2-ad; first compound 0.05 µM) was 0.286. It also gave a relative viability (LC-2-ad; first compound 0.1581 µM) of 0.268, a relative viability (LC-2-ad; first compound 0.5 µM) of 0.265 and a relative viability (LCLC-97TM1; first compound 0.005 µM) of 0.209. For the same molecule, the relative viability (LCLC-97TM1; first compound 0.01581 µM) was 0.179, the relative viability (LCLC-97TM1; first compound 0.05 µM) was 0.0983 and the relative viability (LCLC-97TM1; first compound 0.1581 µM) was 0.108. The relative viability (LCLC-97TM1; first compound 0.5 µM) was 0.0633, the relative viability (LK-2; first compound 0.005 µM) was 0.34 and the relative viability (LK-2; first compound 0.01581 µM) was 0.233. For the same molecule, the relative viability (LK-2; first compound 0.05 µM) was 0.11, the relative viability (LK-2; first compound 0.1581 µM) was 0.091 and the relative viability (LK-2; first compound 0.5 µM) was 0.0936. For the same molecule, the relative viability (LU99A; first compound 0.005 µM) was 0.22, the relative viability (LU99A; first compound 0.01581 µM) was 0.179 and the relative viability (LU99A; first compound 0.05 µM) was 0.177. It also gave a relative viability (LU99A; first compound 0.1581 µM) of 0.195, a relative viability (LU99A; first compound 0.5 µM) of 0.163 and a relative viability (LXF-289; first compound 0.005 µM) of 0.729. It also gave a relative viability (LXF-289; first compound 0.01581 µM) of 0.864, a relative viability (LXF-289; first compound 0.05 µM) of 0.808 and a relative viability (LXF-289; first compound 0.1581 µM) of 0.36. It also gave a relative viability (LXF-289; first compound 0.5 µM) of 0.268, a relative viability (NCI-H1355; first compound 0.005 µM) of 0.883 and a relative viability (NCI-H1355; first compound 0.01581 µM) of 0.988. The relative viability (NCI-H1355; first compound 0.05 µM) was 0.821, the relative viability (NCI-H1355; first compound 0.1581 µM) was 0.553 and the relative viability (NCI-H1355; first compound 0.5 µM) was 0.324. For the same molecule, the relative viability (NCI-H1651; first compound 0.005 µM) was 0.479, the relative viability (NCI-H1651; first compound 0.01581 µM) was 0.569 and the relative viability (NCI-H1651; first compound 0.05 µM) was 0.223. For the same molecule, the relative viability (NCI-H1651; first compound 0.1581 µM) was 0.451, the relative viability (NCI-H1651; first compound 0.5 µM) was 0.221 and the relative viability (NCI-H1666; first compound 0.005 µM) was 0.761. The relative viability (NCI-H1666; first compound 0.01581 µM) was 0.718, the relative viability (NCI-H1666; first compound 0.05 µM) was 0.754 and the relative viability (NCI-H1666; first compound 0.1581 µM) was 0.655. It also gave a relative viability (NCI-H1666; first compound 0.5 µM) of 0.616, a relative viability (NCI-H1944; first compound 0.005 µM) of 0.505 and a relative viability (NCI-H1944; first compound 0.01581 µM) of 0.312. For the same molecule, the relative viability (NCI-H1944; first compound 0.05 µM) was 0.241, the relative viability (NCI-H1944; first compound 0.1581 µM) was 0.14 and the relative viability (NCI-H1944; first compound 0.5 µM) was 0.116. The relative viability (NCI-H1975; first compound 0.005 µM) was 0.255, the relative viability (NCI-H1975; first compound 0.01581 µM) was 0.287 and the relative viability (NCI-H1975; first compound 0.05 µM) was 0.297. It also gave a relative viability (NCI-H1975; first compound 0.1581 µM) of 0.28, a relative viability (NCI-H1975; first compound 0.5 µM) of 0.266 and a relative viability (NCI-H2087; first compound 0.005 µM) of 0.631. It also gave a relative viability (NCI-H2087; first compound 0.01581 µM) of 0.616, a relative viability (NCI-H2087; first compound 0.05 µM) of 0.647 and a relative viability (NCI-H2087; first compound 0.1581 µM) of 0.57. For the same molecule, the relative viability (NCI-H2087; first compound 0.5 µM) was 0.283, the relative viability (NCI-H2342; first compound 0.005 µM) was 0.667 and the relative viability (NCI-H2342; first compound 0.01581 µM) was 0.707. The relative viability (NCI-H2342; first compound 0.05 µM) was 0.638, the relative viability (NCI-H2342; first compound 0.1581 µM) was 0.504 and the relative viability (NCI-H2342; first compound 0.5 µM) was 0.353. The relative viability (NCI-H358; first compound 0.005 µM) was 0.195, the relative viability (NCI-H358; first compound 0.01581 µM) was 0.188 and the relative viability (NCI-H358; first compound 0.05 µM) was 0.185. The relative viability (NCI-H358; first compound 0.1581 µM) was 0.168, the relative viability (NCI-H358; first compound 0.5 µM) was 0.116 and the relative viability (NCI-H596; first compound 0.005 µM) was 0.41. The relative viability (NCI-H596; first compound 0.01581 µM) was 0.485, the relative viability (NCI-H596; first compound 0.05 µM) was 0.472 and the relative viability (NCI-H596; first compound 0.1581 µM) was 0.379. It also gave a relative viability (NCI-H596; first compound 0.5 µM) of 0.349, a relative viability (NCI-H650; first compound 0.005 µM) of 0.809 and a relative viability (NCI-H650; first compound 0.01581 µM) of 0.581. It also gave a relative viability (NCI-H650; first compound 0.05 µM) of 0.283, a relative viability (NCI-H650; first compound 0.1581 µM) of 0.171 and a relative viability (NCI-H650; first compound 0.5 µM) of 0.157. The relative viability (NCI-H661; first compound 0.005 µM) was 0.94, the relative viability (NCI-H661; first compound 0.01581 µM) was 0.849 and the relative viability (NCI-H661; first compound 0.05 µM) was 0.851. For the same molecule, the relative viability (NCI-H661; first compound 0.1581 µM) was 0.609, the relative viability (NCI-H661; first compound 0.5 µM) was 0.373 and the relative viability (NCI-H838; first compound 0.005 µM) was 0.243. It also gave a relative viability (NCI-H838; first compound 0.01581 µM) of 0.235, a relative viability (NCI-H838; first compound 0.05 µM) of 0.272 and a relative viability (NCI-H838; first compound 0.1581 µM) of 0.216. The relative viability (NCI-H838; first compound 0.5 µM) was 0.213, the relative viability (PC-3 [JPC-3]; first compound 0.005 µM) was 1 and the relative viability (PC-3 [JPC-3]; first compound 0.01581 µM) was 0.914. It also gave a relative viability (PC-3 [JPC-3]; first compound 0.05 µM) of 0.616, a relative viability (PC-3 [JPC-3]; first compound 0.1581 µM) of 0.557 and a relative viability (PC-3 [JPC-3]; first compound 0.5 µM) of 0.716. The relative viability (SK-MES-1; first compound 0.005 µM) was 0.684, the relative viability (SK-MES-1; first compound 0.01581 µM) was 0.595 and the relative viability (SK-MES-1; first compound 0.05 µM) was 0.336. For the same molecule, the relative viability (SK-MES-1; first compound 0.1581 µM) was 0.233 and the relative viability (SK-MES-1; first compound 0.5 µM) was 0.207.
